Measurements as given in US20230085307A1, “PYRIDAZINONE COMPOUND AND HERBICIDE” (NISSAN CHEMICAL CORPORATION, priority 2019, published 2023).

Assays:
green foxtail [1] = test: Test Example 4: herbicidal effect by soil treatment (Table 19, symbol G); format: in vivo, green foxtail (Setaria viridis)
Procedure, shortened: (§1)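 Three weeks of greenhouse growth at 25° C. to 30° C. followed a uniform surface spray of water-diluted emulsion at a predetermined herbicide amount. Seeds had been sown beforehand under about 1.5 cm of sterilized diluvial soil. Grading followed criteria set out in an earlier test.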

redroot pigweed [2] = test: Test Example 4: herbicidal effect by soil treatment (Table 19, symbol N); format: in vivo, redroot pigweed (Amaranthus retroflexus)
Procedure, shortened: as §1

southern crabgrass [3] = test: Test Example 5: herbicidal effect by foliage application, plastic box (Table 20, symbol F); format: in vivo, southern crabgrass (Digitaria ciliaris); details: 320 g/ha
Procedure, shortened: (§2)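 Plants sown in sterilized diluvial soil and grown 14 days in a greenhouse at 25° C to 30° C, then sprayed on the foliage with the compound's emulsion diluted in water to a predetermined herbicide amount. Injury to weeds and crops scored three weeks after application on a visual rating scale.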

barnyard grass [4] = test: Test Example 3: herbicidal effect by foliage application, Wagner pot (Table 18, symbol H); format: in vivo, barnyard grass (Echinochloa crus-galli); details: 320 g/ha
Procedure, shortened: (§3)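 Plants were sown in alluvial soil held under 0.1–0.5 cm standing water and grown 14 days in a greenhouse at 25–30 °C. An emulsifiable formulation, water-diluted to the set dose, was then sprayed onto the foliage, and effects were scored three weeks later using previously defined criteria.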

persian speedwell [5] = test: Test Example 5: herbicidal effect by foliage application, plastic box (Table 20, symbol R); format: in vivo, Persian speedwell (Veronica persica); details: 320 g/ha
Procedure, shortened: as §2

barnyard grass [6] = test: Test Example 4: herbicidal effect by soil treatment (Table 19, symbol H); format: in vivo, barnyard grass (Echinochloa crus-galli)
Procedure, shortened: as §1

southern crabgrass [7] = test: Test Example 4: herbicidal effect by soil treatment (Table 19, symbol F); format: in vivo, southern crabgrass (Digitaria ciliaris)
Procedure, shortened: as §1

velvetleaf [8] = test: Test Example 5: herbicidal effect by foliage application, plastic box (Table 20, symbol M); format: in vivo, velvetleaf (Abutilon theophrasti); details: foliage application, 320 g/ha, 3 weeks after application
Procedure, shortened: as §2

wild oat [9] = test: Test Example 4: herbicidal effect by soil treatment (Table 19, symbol I); format: in vivo, wild oat (Avena fatua)
Procedure, shortened: as §1

Chinese sprangletop = test: Test Example 3: herbicidal effect by foliage application, Wagner pot (Table 18, symbol D); format: in vivo, chinese sprangletop (Leptochloa chinensis); details: 320 g/ha
Procedure, shortened: as §3

green foxtail [10] = test: Test Example 5: herbicidal effect by foliage application, plastic box (Table 20, symbol G); format: in vivo, green foxtail (Setaria viridis); details: 320 g/ha
Procedure, shortened: as §2

wild oat [11] = test: Test Example 5: herbicidal effect by foliage application, plastic box (Table 20, symbol I); format: in vivo, wild oat (Avena fatua); details: 320 g/ha
Procedure, shortened: as §2

persian speedwell [12] = test: Test Example 4: herbicidal effect by soil treatment (Table 19, symbol R); format: in vivo, Persian speedwell (Veronica persica)
Procedure, shortened: as §1

velvetleaf [13] = test: Test Example 4: herbicidal effect by soil treatment (Table 19, symbol M); format: in vivo, velvetleaf (Abutilon theophrasti)
Procedure, shortened: as §1

windgrass [14] = test: Test Example 4: herbicidal effect by soil treatment (Table 19, symbol L); format: in vivo, windgrass (Apera spica-venti)
Procedure, shortened: as §1

Italian ryegrass [15] = test: Test Example 4: herbicidal effect by soil treatment (Table 19, symbol K); format: in vivo, Italian ryegrass (Lolium multiflorum)
Procedure, shortened: as §1

late watergrass = test: Test Example 2: herbicidal activity, application during weed generation under submerged conditions (Table 17, symbol A); format: in vivo, late watergrass (Echinochloa oryzicola); details: AAH 320 g/ha; application during weed generation, submerged conditions
Procedure, shortened: (§4)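 In this pot test, flooded alluvial soil (water depth 4 cm) holds all three species sown as a mixture. Once seedlings have one to two leaves, the compound's emulsion, thinned with water to the intended dose, is poured on the water; grading follows after three weeks on the earlier criteria.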

oval-leafed pondweed = test: Test Example 2: herbicidal activity, application during weed generation under submerged conditions (Table 17, symbol C); format: in vivo, oval-leafed pondweed (Monochoria vaginalis); details: AAH 320 g/ha; application during weed generation, submerged conditions
Procedure, shortened: as §4

chickweed [16] = test: Test Example 4: herbicidal effect by soil treatment (Table 19, symbol P); format: in vivo, common chickweed (Stellaria media)
Procedure, shortened: as §1

blackgrass [17] = test: Test Example 4: herbicidal effect by soil treatment (Table 19, symbol J); format: in vivo, blackgrass (Alopecurus myosuroides)
Procedure, shortened: as §1

Italian ryegrass [18] = test: Test Example 5: herbicidal effect by foliage application, plastic box (Table 20, symbol K); format: in vivo, Italian ryegrass (Lolium multiflorum); details: 320 g/ha
Procedure, shortened: as §2

lambsquarters [19] = test: Test Example 5: herbicidal effect by foliage application, plastic box (Table 20, symbol O); format: in vivo, lambsquarters (Chenopodium album); details: 320 g/ha
Procedure, shortened: as §2

lambsquarters [20] = test: Test Example 4: herbicidal effect by soil treatment (Table 19, symbol O); format: in vivo, lambsquarters (Chenopodium album)
Procedure, shortened: as §1

blackgrass [21] = test: Test Example 5: herbicidal effect by foliage application, plastic box (Table 20, symbol J); format: in vivo, blackgrass (Alopecurus myosuroides); details: 320 g/ha
Procedure, shortened: as §2

rice flat sedge = test: Test Example 3: herbicidal effect by foliage application, Wagner pot (Table 18, symbol E); format: in vivo, rice flat sedge (Cyperus iria); details: 320 g/ha
Procedure, shortened: as §3

barnyard grass [22] = test: Test Example 5: herbicidal effect by foliage application, plastic box (Table 20, symbol H); format: in vivo, barnyard grass (Echinochloa crus-galli); details: 320 g/ha
Procedure, shortened: as §2

windgrass [23] = test: Test Example 5: herbicidal effect by foliage application, plastic box (Table 20, symbol L); format: in vivo, windgrass (Apera spica-venti); details: 320 g/ha
Procedure, shortened: as §2

Japanese bulrush = test: Test Example 2: herbicidal activity, application during weed generation under submerged conditions (Table 17, symbol B); format: in vivo, Japanese bulrush (Schoenoplectus juncoides); details: AAH 320 g/ha; application during weed generation, submerged conditions
Procedure, shortened: as §4

chickweed [24] = test: Test Example 5: herbicidal effect by foliage application, plastic box (Table 20, symbol P); format: in vivo, common chickweed (Stellaria media); details: 320 g/ha, foliage application after 14-day growth, evaluated three weeks after application
Procedure, shortened: as §2

redroot pigweed [25] = test: Test Example 5: herbicidal effect by foliage application, plastic box (Table 20, symbol N); format: in vivo, redroot pigweed (Amaranthus retroflexus); details: 320 g/ha, foliage application after 14-day growth, evaluated three weeks after application
Procedure, shortened: as §2

[26] = foliage application, 3 weeks after application
[27] = amount of applied herbicide 320 g/ha
[28] = foliage application after 14-day growth, evaluated three weeks after application

CCCC(=O)Oc1c(C)nn(C)c(=O)c1-c1c(-c2ccc(C(F)(F)F)cc2)sc2ccc(F)cc12 [2-021]
herbicidal effect rating, G: green foxtail (green foxtail [1]; 320 g/ha): 5 (Herbicidal rate of 90% or more (almost completely withered))
herbicidal effect rating, N: redroot pigweed (redroot pigweed [2]; 320 g/ha): 5 (Herbicidal rate of 90% or more (almost completely withered))
effect on southern crabgrass (F) (southern crabgrass [3]; [26]): 4 (Herbicidal rate of 70% or more and less than 90%)
herbicidal effect on H (barnyard grass), rating 0-5 (barnyard grass [4]): 5 (Herbicidal rate of 90% or more (almost completely withered))
effect on persian speedwell (R) (persian speedwell [5]; [26]): 5 (Herbicidal rate of 90% or more (almost completely withered))
herbicidal effect rating, H: barnyard grass (barnyard grass [6]; 320 g/ha): 4 (Herbicidal rate of 70% or more and less than 90%)
herbicidal effect rating, F: southern crabgrass (southern crabgrass [7]; 320 g/ha): 5 (Herbicidal rate of 90% or more (almost completely withered))
effect on velvetleaf (M) (velvetleaf [8]): 5 (Herbicidal rate of 90% or more (almost completely withered))
herbicidal effect rating, I: wild oat (wild oat [9]; 320 g/ha): 0 (Herbicidal rate of 5% or less (almost no effect))
herbicidal effect on D (Chinese sprangletop), rating 0-5 (Chinese sprangletop): 3 (Herbicidal rate of 40% or more and less than 70%)
effect on green foxtail (G) (green foxtail [10]; [26]): 5 (Herbicidal rate of 90% or more (almost completely withered))
effect on wild oat (I) (wild oat [11]; [26]): 5 (Herbicidal rate of 90% or more (almost completely withered))
herbicidal effect rating, R: persian speedwell (persian speedwell [12]; 320 g/ha): 5 (Herbicidal rate of 90% or more (almost completely withered))
herbicidal effect rating, M: velvetleaf (velvetleaf [13]; 320 g/ha): 4 (Herbicidal rate of 70% or more and less than 90%)
herbicidal effect rating, L: windgrass (windgrass [14]; 320 g/ha): 5 (Herbicidal rate of 90% or more (almost completely withered))
herbicidal effect rating, K: Italian ryegrass (Italian ryegrass [15]; 320 g/ha): 5 (Herbicidal rate of 90% or more (almost completely withered))
herbicidal effect rating, A: late watergrass (late watergrass): 0 (Herbicidal rate of 5% or less (almost no effect))
herbicidal effect rating, C: oval-leafed pondweed (oval-leafed pondweed): 0 (Herbicidal rate of 5% or less (almost no effect))
herbicidal effect rating, P: chickweed (chickweed [16]; 320 g/ha): 5 (Herbicidal rate of 90% or more (almost completely withered))
herbicidal effect rating, J: blackgrass (blackgrass [17]; 320 g/ha): 0 (Herbicidal rate of 5% or less (almost no effect))
effect on Italian ryegrass (K) (Italian ryegrass [18]; [26]): 5 (Herbicidal rate of 90% or more (almost completely withered))
effect on lambsquarters (O) (lambsquarters [19]; [26]): 5 (Herbicidal rate of 90% or more (almost completely withered))
herbicidal effect rating, O: lambsquarters (lambsquarters [20]; 320 g/ha): 5 (Herbicidal rate of 90% or more (almost completely withered))
effect on blackgrass (J) (blackgrass [21]; [26]): 3 (Herbicidal rate of 40% or more and less than 70%)
herbicidal effect on E (rice flat sedge), rating 0-5 (rice flat sedge): 5 (Herbicidal rate of 90% or more (almost completely withered))
effect on barnyard grass (H) (barnyard grass [22]; [26]): 5 (Herbicidal rate of 90% or more (almost completely withered))
effect on windgrass (L) (windgrass [23]; [26]): 5 (Herbicidal rate of 90% or more (almost completely withered))
herbicidal effect rating, B: Japanese bulrush (Japanese bulrush): 2 (Herbicidal rate of 20% or more and less than 40%)

CCCC(=O)Oc1c(C)nn(C)c(=O)c1-c1c(-c2ccccc2OC)sc2c(Cl)cccc12 [4-022]
Herbicidal effect by soil treatment, G: green foxtail (green foxtail [1]; [27]): 3 (Herbicidal rate of 40% or more and less than 70%)
Herbicidal effect by soil treatment, N: redroot pigweed (redroot pigweed [2]; [27]): 3 (Herbicidal rate of 40% or more and less than 70%)
herbicidal effect on F: southern crabgrass (evaluation grade 0-5) (southern crabgrass [3]; [28]): 0 (Herbicidal rate of 5% or less (almost no effect))
herbicidal effect on barnyard grass (H) (barnyard grass [4]): 5 (Herbicidal rate of 90% or more (almost completely withered))
herbicidal effect on R: persian speedwell (evaluation grade 0-5) (persian speedwell [5]; [28]): 3 (Herbicidal rate of 40% or more and less than 70%)
Herbicidal effect by soil treatment, H: barnyard grass (barnyard grass [6]; [27]): 3 (Herbicidal rate of 40% or more and less than 70%)
Herbicidal effect by soil treatment, F: southern crabgrass (southern crabgrass [7]; [27]): 3 (Herbicidal rate of 40% or more and less than 70%)
Herbicidal effect by soil treatment, I: wild oat (wild oat [9]; [27]): 0 (Herbicidal rate of 5% or less (almost no effect))
herbicidal effect on Chinese sprangletop (D) (Chinese sprangletop): 5 (Herbicidal rate of 90% or more (almost completely withered))
herbicidal effect on G: green foxtail (evaluation grade 0-5) (green foxtail [10]; [28]): 2 (Herbicidal rate of 20% or more and less than 40%)
herbicidal effect on I: wild oat (evaluation grade 0-5) (wild oat [11]; [28]): 0 (Herbicidal rate of 5% or less (almost no effect))
herbicidal effect on P: chickweed (evaluation grade 0-5) (chickweed [24]): 5 (Herbicidal rate of 90% or more (almost completely withered))
Herbicidal effect by soil treatment, R: persian speedwell (persian speedwell [12]; [27]): 0 (Herbicidal rate of 5% or less (almost no effect))
Herbicidal effect by soil treatment, M: velvetleaf (velvetleaf [13]; [27]): 0 (Herbicidal rate of 5% or less (almost no effect))
Herbicidal effect by soil treatment, L: windgrass (windgrass [14]; [27]): 0 (Herbicidal rate of 5% or less (almost no effect))
Herbicidal effect by soil treatment, K: Italian ryegrass (Italian ryegrass [15]; [27]): 0 (Herbicidal rate of 5% or less (almost no effect))
herbicidal effect rating, A: late watergrass (late watergrass): 0 (Herbicidal rate of 5% or less (almost no effect))
herbicidal effect rating, C: oval-leafed pondweed (oval-leafed pondweed): 0 (Herbicidal rate of 5% or less (almost no effect))
Herbicidal effect by soil treatment, P: chickweed (chickweed [16]; [27]): 1 (Herbicidal rate of 5% or more and less than 20%)
Herbicidal effect by soil treatment, J: blackgrass (blackgrass [17]; [27]): 0 (Herbicidal rate of 5% or less (almost no effect))
herbicidal effect on K: Italian ryegrass (evaluation grade 0-5) (Italian ryegrass [18]; [28]): 1 (Herbicidal rate of 5% or more and less than 20%)
herbicidal effect on O: lambsquarters (evaluation grade 0-5) (lambsquarters [19]; [28]): 0 (Herbicidal rate of 5% or less (almost no effect))
Herbicidal effect by soil treatment, O: lambsquarters (lambsquarters [20]; [27]): 2 (Herbicidal rate of 20% or more and less than 40%)
herbicidal effect on N: redroot pigweed (evaluation grade 0-5) (redroot pigweed [25]): 3 (Herbicidal rate of 40% or more and less than 70%)
herbicidal effect on J: blackgrass (evaluation grade 0-5) (blackgrass [21]; [28]): 0 (Herbicidal rate of 5% or less (almost no effect))
herbicidal effect on rice flat sedge (E) (rice flat sedge): 4 (Herbicidal rate of 70% or more and less than 90%)
herbicidal effect on H: barnyard grass (evaluation grade 0-5) (barnyard grass [22]; [28]): 4 (Herbicidal rate of 70% or more and less than 90%)
herbicidal effect on L: windgrass (evaluation grade 0-5) (windgrass [23]; [28]): 5 (Herbicidal rate of 90% or more (almost completely withered))
herbicidal effect rating, B: Japanese bulrush (Japanese bulrush): 2 (Herbicidal rate of 20% or more and less than 40%)
